Results published in ChEMBL document CHEMBL3885861, “Open TG-GATES”.

Species on record: Rattus norvegicus
Assay: Open TG-GATES - Regimen: Single
Format: toxicity, organism-based, Sprague-Dawley
Design: regimen Single, gender Male, age 6 weeks
Details: in vivo, po, route gavage; for Hb / Ht / Lym / MCH / MCHC / MCV / Mono / Neu / PT / Plat / RBC / Ret / WBC / APTT / Bas / Eos / Fbg: tissue Blood; for KIDNEY_L / KIDNEY_R / KIDNEY_TOTAL: tissue Kidney; for LIVER: tissue Liver; for A/G / ALP / ALT / AST / BUN / CRE / Ca / Cl / DBIL / GLC / IP / K / LDH / Na / PL / RALB / TBIL / TC / TG / TP / gamma-GTP: tissue Plasma
[1] = 15 mg/kg, 6 h, dose level Middle
[2] = 15 mg/kg, 9 h, dose level Middle
[3] = 15 mg/kg, 24 h, dose level Middle

SMILES: COc1ccc2c(c1)c(CC(=O)O)c(C)n2C(=O)c1ccc(Cl)cc1 [INDOMETHACIN]
- Hb [1]: 14 g/dL
- Ht [1]: 38.4%
- Lym [1]: 71.4%
- MCH [1]: 22.9 pg
- MCHC [1]: 36.6%
- MCV [1]: 62.7 fL
- Mono [1]: 3.4%
- Neu [1]: 22.8%
- PT [1]: 12.2 s
- Plat [1]: 116.9 x10_4/uL
- RBC [1]: 613.2 x10_4/ul
- Ret [1]: 7.8%
- WBC [1]: 112.3 x10_2/uL
- KIDNEY_L [1]: 1 g
- KIDNEY_R [1]: 1 g
- KIDNEY_TOTAL [1]: 2 g
- LIVER [1]: 9.3 g
- A/G [1]: 1.6
- ALP [1]: 853.6 IU/L
- ALT [1]: 39.6 IU/L
- AST [1]: 70 IU/L
- BUN [1]: 12.8 mg/dL
- CRE [1]: 0.4 mg/dL
- Ca [1]: 10.5 mg/dL
- Cl [1]: 103.4 meq/L
- DBIL [1]: 0.074 mg/dL
- GLC [1]: 200.2 mg/dL
- IP [1]: 9.5 mg/dL
- K [1]: 4.1 meq/L
- LDH [1]: 204.8 IU/L
- Na [1]: 140.8 meq/L
- PL [1]: 135.6 mg/dL
- RALB [1]: 3.2 g/dL
- TBIL [1]: 0.1 mg/dL
- TC [1]: 74.4 mg/dL
- TG [1]: 66.6 mg/dL
- TP [1]: 5.3 g/dL
- gamma-GTP [1]: 1.2 IU/L
- TERMINAL_BW [2]: 220.7 g
- APTT [2]: 18 s
- Bas [2]: 0%
- Eos [2]: 0.4%
- Fbg [2]: 217.2 mg/dL
- Hb [2]: 13.6 g/dL
- Ht [2]: 37.1%
- Lym [2]: 69.4%
- MCH [2]: 22.4 pg
- MCHC [2]: 36.6%
- MCV [2]: 61.1 fL
- Mono [2]: 3.4%
- Neu [2]: 24.8%
- PT [2]: 12.5 s
- Plat [2]: 119.6 x10_4/uL
- RBC [2]: 607 x10_4/ul
- Ret [2]: 7.9%
- WBC [2]: 101.8 x10_2/uL
- KIDNEY_L [2]: 0.9 g
- KIDNEY_R [2]: 0.9 g
- KIDNEY_TOTAL [2]: 1.9 g
- LIVER [2]: 8.7 g
- A/G [2]: 1.6
- ALP [2]: 719.4 IU/L
- ALT [2]: 29.2 IU/L
- AST [2]: 63.8 IU/L
- BUN [2]: 13 mg/dL
- CRE [2]: 0.3 mg/dL
- Ca [2]: 10.4 mg/dL
- Cl [2]: 104.2 meq/L
- DBIL [2]: 0.07 mg/dL
- GLC [2]: 186.8 mg/dL
- IP [2]: 10 mg/dL
- K [2]: 4 meq/L
- LDH [2]: 202.2 IU/L
- Na [2]: 141.4 meq/L
- PL [2]: 125.4 mg/dL
- RALB [2]: 3.2 g/dL
- TBIL [2]: 0.1 mg/dL
- TC [2]: 69.6 mg/dL
- TG [2]: 36.8 mg/dL
- TP [2]: 5.2 g/dL
- gamma-GTP [2]: 1 IU/L
- TERMINAL_BW [3]: 227.1 g
- APTT [3]: 19.7 s
- Bas [3]: 0.2%
- Eos [3]: 0.8%
- Fbg [3]: 294.2 mg/dL
- Hb [3]: 10.8 g/dL
- Ht [3]: 31%
- Lym [3]: 57.8%
- MCH [3]: 21.3 pg
- MCHC [3]: 34.9%
- MCV [3]: 61.2 fL
- Mono [3]: 2.4%
- Neu [3]: 37.8%
- PT [3]: 12.2 s
- Plat [3]: 94.5 x10_4/uL
- RBC [3]: 509.2 x10_4/ul
- Ret [3]: 7.9%
- WBC [3]: 93.5 x10_2/uL
- KIDNEY_L [3]: 1 g
- KIDNEY_R [3]: 1 g
- KIDNEY_TOTAL [3]: 2.1 g
- LIVER [3]: 9.5 g
- A/G [3]: 1.3
- ALP [3]: 547.6 IU/L
- ALT [3]: 28 IU/L
- AST [3]: 57 IU/L
- BUN [3]: 14.4 mg/dL
- CRE [3]: 0.4 mg/dL
- Ca [3]: 9.8 mg/dL
- Cl [3]: 105.4 meq/L
- DBIL [3]: 0.06 mg/dL
- GLC [3]: 173.2 mg/dL
- IP [3]: 9.6 mg/dL
- K [3]: 4.2 meq/L
- LDH [3]: 180.2 IU/L
- Na [3]: 141.2 meq/L
- PL [3]: 127 mg/dL
- RALB [3]: 2.5 g/dL
- TBIL [3]: 0.1 mg/dL
- TC [3]: 72.8 mg/dL
- TG [3]: 80.8 mg/dL
- TP [3]: 4.3 g/dL
- gamma-GTP [3]: 1.4 IU/L
- TERMINAL_BW (50 mg/kg, 3 h, dose level High): 226 g
- APTT (50 mg/kg, 3 h, dose level High): 21.4 s
- Bas (50 mg/kg, 3 h, dose level High): 0.2%
- Eos (50 mg/kg, 3 h, dose level High): 1%
- Fbg (50 mg/kg, 3 h, dose level High): 216.6 mg/dL
- Hb (50 mg/kg, 3 h, dose level High): 13.8 g/dL
- Ht (50 mg/kg, 3 h, dose level High): 37.8%
- Lym (50 mg/kg, 3 h, dose level High): 73.6%
- MCH (50 mg/kg, 3 h, dose level High): 22.2 pg
- MCHC (50 mg/kg, 3 h, dose level High): 36.4%
- MCV (50 mg/kg, 3 h, dose level High): 60.9 fL
- Mono (50 mg/kg, 3 h, dose level High): 2.4%
- Neu (50 mg/kg, 3 h, dose level High): 22%
- PT (50 mg/kg, 3 h, dose level High): 12 s
- Plat (50 mg/kg, 3 h, dose level High): 119.2 x10_4/uL
- RBC (50 mg/kg, 3 h, dose level High): 621.6 x10_4/ul
- Ret (50 mg/kg, 3 h, dose level High): 8.1%
- WBC (50 mg/kg, 3 h, dose level High): 114.1 x10_2/uL
- KIDNEY_L (50 mg/kg, 3 h, dose level High): 0.9 g
- KIDNEY_R (50 mg/kg, 3 h, dose level High): 0.9 g
- KIDNEY_TOTAL (50 mg/kg, 3 h, dose level High): 1.9 g
- LIVER (50 mg/kg, 3 h, dose level High): 9.8 g
- A/G (50 mg/kg, 3 h, dose level High): 1.6
- ALP (50 mg/kg, 3 h, dose level High): 971 IU/L
